From patent publication US10820591B2, “Substituted sulfonyl amides for controlling animal pests” (Bayer Aktiengesellschaft, priority 2016, dated 2020)
Like-named read-outs stand apart in the source and are kept apart here.

Assays:
[1] = log P by HPLC on reversed-phase column (C18), EEC Directive 79/831 Annex V.A8; type: physicochemical
Experimental: The log P values were determined according to EEC Directive 79/831 Annex V.A8 by HPLC (high-performance liquid chromatography) on a reversed-phase column (C18). Temperature 43° C. The calibration is effected with unbranched alkan-2-ones (having 3 to 16 carbon atoms), for which the log P values are known. Here, the terms acidic and neutral are defined analogously to the definitions below for the determination of M^+. The determination of the M^+ by LC-MS in the acidic range was carried out at pH 2.7 using the mobile phases 0.1% aqueous formic acid and acetonitrile (contains 0.1% formic acid); linear gradient from 10% acetonitrile to 95% acetonitrile, instrument: Agilent 1100 LC system, Agilent MSD system, HTS PAL. The determination of the M^+ by LC-MS in the neutral range was carried out at pH 7.8 using the mobile phases 0.001 molar aqueous ammonium bicarbonate solution and acetonitrile; linear gradient from 10% acetonitrile to 95% acetonitrile.

[2] = test system: Meloidogyne incognita; assay: Meloidogyne incognita test (sand, lettuce, gall formation); type: in vivo; conditions: Meloidogyne incognita, 336 h, 20 ppm, after 14 days; read-out: nematicidal efficacy (formation of galls)
Procedure, shortened: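 Gall counts on lettuce roots were scored after 14 days in sand inoculated with root-knot nematode eggs/larvae plus compound diluted in water. Values run from 0% (galls as in untreated plants) to 100% (gall-free).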

[3] = test system: Tetranychus urticae; assay: Tetranychus urticae spray test, OP-resistant; type: in vivo; conditions: foliar, 144 h, bean leaf discs, after 6 days, read-out: efficacy
Experimental: Tetranychus urticae—Spray Test, OP-Resistant
To produce a suitable active compound preparation, 1 part by weight of active compound is dissolved with the specified parts by weight of solvent and made up to the desired concentration with water containing an emulsifier concentration of 1000 ppm. To produce further test concentrations, the formulation is diluted with emulsifier-containing water.
Discs of bean leaves (Phaseolus vulgaris) infested with all stages of the greenhouse red spider mite (Tetranychus urticae) are sprayed with an active compound preparation of the desired concentration.
After 6 days, the efficacy in % is determined. 100% means that all the spider mites have been killed; 0% means that no spider mites have been killed.

[4] = test system: Myzus persicae; assay: Myzus persicae spray test (Chinese cabbage leaf discs); type: in vivo; conditions: foliar, 144 h, 500 g/ha, after 6 days, read-out: efficacy
Experimental: Myzus persicae—Spray Test [table] To produce a suitable active compound preparation, 1 part by weight of active compound is dissolved with the specified parts by weight of solvent and made up to the desired concentration with water containing an emulsifier concentration of 1000 ppm. To produce further test concentrations, the formulation is diluted with emulsifier-containing water. Discs of Chinese cabbage leaves (Brassica pekinensis) infested by all stages of the green peach aphid (Myzus persicae) are sprayed with an active compound preparation of the desired concentration. After 6 days, the efficacy in % is determined. 100% means that all the aphids have been killed; 0% means that no aphids have been killed.

[5] = test system: Myzus persicae; assay: Myzus persicae oral test; type: in vivo; conditions: 120 h, after 5 days, read-out: efficacy
Experimental: Myzus persicae—Oral Test [table] To produce a suitable active compound preparation, 1 part by weight of active compound is dissolved with the stated parts by weight of solvent and made up to the desired concentration with water. 50 μl of the active compound preparation are transferred into microtitre plates and made up to a final volume of 200 μl with 150 μl of IPL41 insect medium (33%+15% sugar). Subsequently, the plates are sealed with parafilm, which a mixed population of green peach aphids (Myzus persicae) within a second microtitre plate is able to puncture and imbibe the solution through it. After 5 days, the efficacy in % is determined. 100% means that all the aphids have been killed; 0% means that no aphids have been killed.

[6] = reversed-phase C18 HPLC column, pH 2.7, HCOOH (formic acid mobile phase), 43° C., read-out: log P (HCOOH)
[7] = reversed-phase C18 HPLC column, neutral range, pH 7.8, aqueous ammonium bicarbonate/acetonitrile, 43° C., read-out: log P (neutral)
[8] = reversed-phase C18 HPLC column, acidic range, pH 2.7, 0.1% aqueous formic acid/acetonitrile, 43° C., read-out: log P (acidic)

O=C(O)c1cn(Cc2c(F)cccc2F)cn1 [1-(2,6-difluorobenzyl)-1H-imidazole-4-carboxylic acid] showed a chromatographic logP ([1]; pH 2.7) of 0.42.
Cc1nc(C(=O)O)cn1-c1ccccc1Cl [1-(2-chlorophenyl)-2-methyl-1H-imidazole-4-carboxylic acid] showed a chromatographic logP [1, 6] of 0.67 and a chromatographic logP [1, 7] of -0.01.
In the case of Cc1nc(C(=O)NS(=O)(=O)c2ccccc2Cl)cn1-c1ccccc1Cl [1-(2-chlorophenyl)-N-[(2-chlorophenyl)sulfonyl]-2-methyl-1H-imidazole-4-carboxamide], the chromatographic logP [1, 7] is reported as 0.85.
For O=C(O)c1nc(Br)n(CCC(F)(F)F)c1Br [2,5-dibromo-1-(3,3,3-trifluoropropyl)-1H-imidazole-4-carboxylic acid], the chromatographic logP ([1]; pH 2.7) was 1.49.
In the case of O=C(NS(=O)(=O)c1ccccc1Cl)c1nc(Br)n(CCC(F)(F)F)c1Br [2,5-dibromo-N-[(2-chlorophenyl)sulfonyl]-1-(3,3,3-trifluoropropyl)-1H-imidazole-4-carboxamide], the chromatographic logP [1, 6] is reported as 2.99.
Molecule CCCn1cnc(C(=O)O)c1Cl [5-chloro-1-propyl-1H-imidazole-4-carboxylic acid] has a chromatographic logP ([1]; pH 2.7) of 0.6.
Molecule CCCn1cnc(C(=O)NS(=O)(=O)c2ccc(OC)cc2)c1Cl [5-chloro-N-[(4-methoxyphenyl)sulfonyl]-1-propyl-1H-imidazole-4-carboxamide] has a chromatographic logP [1, 7] of 0.56.
For O=C(NS(=O)(=O)Cc1ccccc1)c1ncn(CCC(F)(F)F)c1Cl [I-028], the pest or weed control at 20 ppm [2] was 100% and the pest or weed control at 500 g/ha [3] was 90%.
Molecule CC(CC(F)(F)F)n1cnc(C(=O)NS(=O)(=O)c2ccc(Cl)cc2)c1Cl (stereo not shown) [I-073] has a pest or weed control at 20 ppm [2] of 100% and a pest or weed control at 500 g/ha [3] of 90%.
Molecule Cc1cccc(CS(=O)(=O)NC(=O)c2ncn(CCC(F)(F)F)c2Cl)c1 [I-083] has a pest or weed control at 20 ppm [2] of 90% and a pest or weed control at 500 g/ha [3] of 90%.
O=C(NS(=O)(=O)Cc1ccccc1Cl)c1ncn(CCC(F)(F)F)c1Cl [I-085] gave a pest or weed control at 500 g/ha [4] of 70%, a pest or weed control at 20 ppm [2] of 90% and a pest or weed control at 500 g/ha [3] of 70%.
Molecule Cn1cc(C(=O)NS(=O)(=O)c2ccccc2Cl)nc1Cc1ccccc1Cl [I-116] has a pest or weed control at 500 g/ha [4] of 70%, a pest or weed control at 20 ppm [5] of 90% and a pest or weed control at 20 ppm [2] of 90%.
With Cn1cc(C(=O)NS(=O)(=O)c2ccccc2Cl)nc1Cc1ccc(Cl)cc1 [I-121] the pest or weed control at 20 ppm [2] was 70% and the pest or weed control at 500 g/ha [3] was 90%.
CC(C)S(=O)(=O)NC(=O)c1cn(C)c(Cc2ccc(Cl)cc2)n1 [I-122] gave a pest or weed control at 500 g/ha [4] of 90%, a pest or weed control at 20 ppm [2] of 90% and a pest or weed control at 500 g/ha [3] of 100%.
With Cn1nc(C(=O)NS(C)(=O)=O)cc1-c1cc(Cl)ccn1 [I-127] the pest or weed control at 500 g/ha [4] was 90%, the pest or weed control at 20 ppm [5] was 70% and the pest or weed control at 20 ppm [2] was 70%.
Molecule O=C(NS(=O)(=O)c1ccc(Cl)cc1)c1cn(Cc2cccc(Cl)c2)cn1 [I-160] has a pest or weed control at 20 ppm [2] of 70% and a pest or weed control at 500 g/ha [3] of 70%.
For Cc1nc(C(=O)NS(=O)(=O)c2ccccc2Cl)cn1Cc1ccc(Cl)cc1 [I-170], the pest or weed control at 20 ppm [5] was 90%, the pest or weed control at 20 ppm [2] was 100% and the pest or weed control at 500 g/ha [3] was 90%.
Work on Cc1nc(C(=O)NS(=O)(=O)c2ccccc2)cn1Cc1ccccc1Cl [I-171] yielded a pest or weed control at 500 g/ha [4] of 70%, a pest or weed control at 20 ppm [2] of 100% and a pest or weed control at 500 g/ha [3] of 90%.
O=C(NS(=O)(=O)c1ccccc1)c1cn(-c2cccc(Cl)c2)cn1 [I-172] gave a pest or weed control at 20 ppm [2] of 100% and a pest or weed control at 500 g/ha [3] of 100%.
For O=C(NS(=O)(=O)c1ccccc1)c1cn(-c2cccc(C(F)(F)F)c2)cn1 [I-173], the pest or weed control at 20 ppm [2] was 100% and the pest or weed control at 500 g/ha [3] was 90%.
With O=C(NS(=O)(=O)c1ccccc1Cl)c1cn(-c2ccc(C(F)(F)F)cc2Cl)cn1 [I-197] the pest or weed control at 20 ppm [2] was 100% and the pest or weed control at 500 g/ha [3] was 70%.
In the case of Cc1nc(C(=O)NS(=O)(=O)c2c(Cl)cccc2Cl)cn1-c1ccccc1 [I-253], the pest or weed control at 500 g/ha [4] is reported as 90%, the pest or weed control at 100 ppm [5] is reported as 100% and the pest or weed control at 20 ppm [2] is reported as 100%.
Work on Cc1ccc(S(=O)(=O)NC(=O)c2cn(-c3ccccc3)c(C)n2)cc1 [I-254] yielded a pest or weed control at 500 g/ha [4] of 90%, a pest or weed control at 100 ppm [5] of 100% and a pest or weed control at 20 ppm [2] of 100%.
Cc1nc(C(=O)NS(=O)(=O)c2ccccc2)cn1-c1ccccc1F [I-255] showed a pest or weed control at 20 ppm [2] of 100% and a pest or weed control at 500 g/ha [3] of 70%.
With Cc1nc(C(=O)NS(=O)(=O)c2ccccc2Cl)cn1-c1cccc(Cl)c1Cl [I-264] the pest or weed control at 500 g/ha [4] was 70%, the pest or weed control at 100 ppm [5] was 100% and the pest or weed control at 20 ppm [2] was 90%.
Work on Cc1nc(C(=O)NS(=O)(=O)c2ccccc2Cl)cn1-c1ccccc1Cl [I-269] yielded a pest or weed control at 500 g/ha [4] of 70%, a pest or weed control at 20 ppm [5] of 70% and a pest or weed control at 20 ppm [2] of 90%.
O=C(NS(=O)(=O)c1c(Cl)cccc1Cl)c1cn(-c2cc(Cl)cc(C(F)(F)F)c2)cn1 [I-286] gave a pest or weed control at 20 ppm [5] of 90% and a pest or weed control at 20 ppm [2] of 100%.
In the case of Cc1cc(-n2cnc(C(=O)NS(=O)(=O)c3c(Cl)cccc3Cl)c2)cc(C(F)(F)F)c1 [I-291], the pest or weed control at 20 ppm [5] is reported as 90% and the pest or weed control at 20 ppm [2] is reported as 90%.
Cc1nc(C(=O)NS(=O)(=O)c2c(Cl)cccc2Cl)cn1-c1cc(Cl)cc(Cl)c1 [I-317] showed a pest or weed control at 500 g/ha [4] of 90%, a pest or weed control at 20 ppm [5] of 90% and a pest or weed control at 20 ppm [2] of 100%.
With Cc1nc(C(=O)NS(=O)(=O)c2cc(Cl)ccc2Cl)cn1-c1cc(F)cc(Cl)c1 [I-330] the pest or weed control at 20 ppm [2] was 100% and the pest or weed control at 500 g/ha [3] was 70%.
Work on COc1ccc(Cl)c(S(=O)(=O)NC(=O)c2cn(C)c(Cc3ccccc3)n2)c1 [I-373] yielded a pest or weed control at 20 ppm [2] of 70% and a pest or weed control at 500 g/ha [3] of 90%.
Molecule CCSc1cccc(Cl)c1S(=O)(=O)NC(=O)c1cn(-c2cc(Cl)cc(Cl)c2)cn1 [I-391] has a pest or weed control at 20 ppm [2] of 100% and a pest or weed control at 500 g/ha [3] of 70%.
With CC(C)Nc1cccc(F)c1S(=O)(=O)NC(=O)c1cn(-c2cc(Cl)cc(Cl)c2)cn1 [I-392] the pest or weed control at 500 g/ha [4] was 90%, the pest or weed control at 20 ppm [5] was 100% and the pest or weed control at 20 ppm [2] was 100%.
In the case of CC(C)Oc1ccc(Cl)c(S(=O)(=O)NC(=O)c2nc(Cl)n(C3CC3C(F)(F)F)c2Cl)c1 (stereo not shown) [I-460], the pest or weed control at 20 ppm [5] is reported as 70% and the pest or weed control at 20 ppm [2] is reported as 100%.
Molecule COc1ccc(Cl)c(S(=O)(=O)NC(=O)c2ncn(-c3ccc(Cl)cc3)c2C(C)C)c1 [I-483] has a pest or weed control at 20 ppm [2] of 70% and a pest or weed control at 500 g/ha [3] of 80%.
CC(C)S(=O)(=O)NC(=O)c1nc(Cl)n(CCC(F)(F)F)c1Cl [I-492] gave a pest or weed control at 500 g/ha [3] of 90%.
Cn1nc(C(=O)NS(=O)(=O)c2cc(Cl)ccc2Cl)cc1-c1cccc(C(F)(F)F)c1 [N-[(2,5-dichlorophenyl)sulfonyl]-1-methyl-5-[3-(trifluoromethyl)phenyl]-1H-pyrazole-3-carboxamide] showed a chromatographic logP [1, 8] of 3.84.
In the case of COc1ccc(Cl)c(S(=O)(=O)NC(=O)c2cn(Cc3c(F)cccc3F)cn2)c1 [N-[(2-chloro-5-methoxyphenyl)sulfonyl]-1-(2,6-difluorobenzyl)-1H-imidazole-4-carboxamide], the chromatographic logP [1, 8] is reported as 2.18.
COc1ccc(Cl)c(S(=O)(=O)NC(=O)c2nc(C)n(-c3cc(Cl)cc(Cl)c3)c2F)c1 [N-[(2-chloro-5-methoxyphenyl)sulfonyl]-1-(3,5-dichlorophenyl)-5-fluoro-2-methyl-1H-imidazole-4-carboxamide] showed a chromatographic logP [1, 8] of 3.71.
In the case of CCOC(=O)c1cn(-c2ccccc2Cl)c(C)n1 [ethyl 1-(2-chlorophenyl)-2-methyl-1H-imidazole-4-carboxylate], the chromatographic logP [1, 7] is reported as 2.06.
In the case of CCCn1cnc(C(=O)OCC)c1N [ethyl 5-amino-1-propyl-1H-imidazole-4-carboxylate], the chromatographic logP [1, 7] is reported as 0.9.
